Source: ChEMBL document CHEMBL1909046, “DrugMatrix in vitro pharmacology data”

Legend:
[1] = target: Aldo-keto reductase family 1 member B1 (Rattus norvegicus, UniProt P07943); assay: biochemical; format: tissue-based, Lens of camera-type eye;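 also: inhibition of aldose reductase enzyme activity, measured with DL-glyceraldehyde as the substrate; in other assays of this panel Not Active means under 50% inhibition at 10 µM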
[2] = DRUGMATRIX: ATPase, Na+/K+ enzyme inhibition (substrate: ATP); format: tissue-based, Sus scrofa, Heart; details: Not Active = under 50% inhibition at 10 µM
[3] = DRUGMATRIX: Atrial Natriuretic Factor (ANF) radioligand binding (ligand: [125I] ANF (rat)); format: cell membranes, Cavia porcellus, Dunkin-Hartley, Adrenal gland, Membrane; details: Not Active = under 50% inhibition at 10 µM
Thromboxane-A synthase = target: T1, Thromboxane-A synthase (Homo sapiens, UniProt P24557); assay: biochemical; format: tissue-based, Platelet; details: platelet;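 also: enzyme inhibition assay with PGH2 supplied as substrate; in other assays of this panel Not Active means under 50% inhibition at 10 µM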
T1 sequence (P24557 whole entry): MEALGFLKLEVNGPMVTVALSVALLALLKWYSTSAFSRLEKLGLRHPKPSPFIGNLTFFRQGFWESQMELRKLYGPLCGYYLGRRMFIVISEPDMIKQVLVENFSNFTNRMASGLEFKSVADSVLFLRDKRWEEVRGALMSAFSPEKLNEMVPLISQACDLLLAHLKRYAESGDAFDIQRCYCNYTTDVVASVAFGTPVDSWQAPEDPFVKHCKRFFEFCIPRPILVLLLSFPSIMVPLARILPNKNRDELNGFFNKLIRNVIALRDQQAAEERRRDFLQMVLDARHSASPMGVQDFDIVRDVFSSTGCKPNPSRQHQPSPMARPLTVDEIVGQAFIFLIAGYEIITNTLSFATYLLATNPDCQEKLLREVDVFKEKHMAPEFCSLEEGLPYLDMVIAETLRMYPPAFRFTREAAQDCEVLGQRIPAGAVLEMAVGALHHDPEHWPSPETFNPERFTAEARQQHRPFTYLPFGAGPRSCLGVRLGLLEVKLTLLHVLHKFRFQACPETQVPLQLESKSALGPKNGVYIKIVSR

[4] = target: C-C chemokine receptor type 2 (Homo sapiens, UniProt P41597); format: cell membranes, CHO-K1, Membrane; details: cho-k1; also: in other assays of this panel Not Active means under 50% inhibition at 10 µM
C-C chemokine receptor type 2, sequence (P41597 whole entry): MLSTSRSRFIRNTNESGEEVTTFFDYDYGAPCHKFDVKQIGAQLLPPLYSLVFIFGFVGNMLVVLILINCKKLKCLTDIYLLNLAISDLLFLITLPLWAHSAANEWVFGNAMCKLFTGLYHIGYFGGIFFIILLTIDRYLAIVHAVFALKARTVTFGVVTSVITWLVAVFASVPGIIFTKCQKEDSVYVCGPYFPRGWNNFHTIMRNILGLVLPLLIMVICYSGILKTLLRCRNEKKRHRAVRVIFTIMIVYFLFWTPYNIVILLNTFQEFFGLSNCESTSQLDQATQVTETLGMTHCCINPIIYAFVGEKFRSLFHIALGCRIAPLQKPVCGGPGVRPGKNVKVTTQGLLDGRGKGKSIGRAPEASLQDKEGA

[5] = DRUGMATRIX: Leukotriene, BLT (LTB4) radioligand binding (ligand: [3H]LTB4); format: cell membranes, Membrane; details: u-937; Not Active = under 50% inhibition at 10 µM
Cathepsin G = target: T2, Cathepsin G (Homo sapiens, UniProt P08311); format: tissue-based; details: neutrophil;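 also: inhibition of Cathepsin G enzyme activity, tested on an AMC-conjugated peptide substrate; in other assays of this panel Not Active means under 50% inhibition at 10 µM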
T2 sequence (P08311 whole entry): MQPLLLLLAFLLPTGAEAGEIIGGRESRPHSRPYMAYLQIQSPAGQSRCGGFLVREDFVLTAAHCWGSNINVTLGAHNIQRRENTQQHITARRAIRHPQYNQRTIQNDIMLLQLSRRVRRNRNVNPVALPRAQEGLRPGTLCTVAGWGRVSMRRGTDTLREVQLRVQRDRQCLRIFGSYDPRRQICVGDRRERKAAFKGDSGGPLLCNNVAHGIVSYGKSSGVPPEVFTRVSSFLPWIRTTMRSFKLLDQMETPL

[6] = DRUGMATRIX: Purinergic P2X radioligand binding (ligand: [3H] alpha, beta-Methylene-ATP); format: cell membranes, Oryctolagus cuniculus, New Zealand albino, Urinary bladder, Membrane; details: Not Active = under 50% inhibition at 10 µM

COc1ccc(C[C@H]2NC[C@H](O)[C@H]2OC(C)=O)cc1 [ANISOMYCIN]
Not Active: IC50 [1] | Ki [1] | IC50 [2] | Ki [2] | IC50 [3] | Ki [3] | IC50 (Thromboxane-A synthase) | Ki (Thromboxane-A synthase) | IC50 [4] | Ki [4] | IC50 [5] | Ki [5] | IC50 (Cathepsin G) | Ki (Cathepsin G) | IC50 [6] | Ki [6]

CNNCc1ccc(C(=O)NC(C)C)cc1 [PROCARBAZINE]
Not Active: IC50 [1] | IC50 [2] | Ki [2] | IC50 [3] | Ki [3] | IC50 (Thromboxane-A synthase) | IC50 [4] | IC50 [5] | Ki [5] | IC50 (Cathepsin G) | IC50 [6] | Ki [6]

Cc1onc(O)c1CC(N)C(=O)O (racemic) [(R,S)-AMPA]
Not Active: IC50 [1] | IC50 [2] | Ki [2] | IC50 [3] | Ki [3] | IC50 (Thromboxane-A synthase) | IC50 [4] | IC50 [5] | Ki [5] | IC50 (Cathepsin G) | IC50 [6] | Ki [6]

Cc1c(O)c(=O)ccn1C [DEFERIPRONE]
Not Active: IC50 [1] | IC50 [2] | Ki [2] | IC50 [3] | Ki [3] | IC50 (Thromboxane-A synthase) | IC50 [4] | IC50 [5] | Ki [5] | IC50 (Cathepsin G) | IC50 [6] | Ki [6]

Nc1ncn([C@@H]2O[C@H](CO)[C@@H](O)[C@H]2O)c(=O)n1 [AZACITIDINE]
Not Active: IC50 [1] | IC50 [2] | Ki [2] | IC50 [3] | Ki [3] | IC50 (Thromboxane-A synthase) | IC50 [4] | IC50 [5] | Ki [5] | IC50 (Cathepsin G) | IC50 [6] | Ki [6]

CCn1cc(C(=O)O)c(=O)c2cc(F)c(N3CCNCC3)cc21 [NORFLOXACIN]
Not Active: IC50 [1] | IC50 [2] | Ki [2] | IC50 [3] | Ki [3] | IC50 (Thromboxane-A synthase) | IC50 [4] | IC50 [5] | Ki [5] | IC50 (Cathepsin G) | IC50 [6] | Ki [6]

CCCCc1nc(Cl)c(CO)n1Cc1ccc(-c2ccccc2-c2nnn[nH]2)cc1 [LOSARTAN]
Not Active: IC50 [1] | IC50 [2] | Ki [2] | IC50 [3] | Ki [3] | IC50 (Thromboxane-A synthase) | IC50 [5] | Ki [5] | IC50 (Cathepsin G) | IC50 [6] | Ki [6]
